Measurements reported in patent US20050137243A1, “Antagonists of melanin concentrating hormone effects on the melanin concentrating hormone receptor” (priority 2003, published 2005).

Experiments:
[1] = Pharmacokinetic drug levels in whole brain after oral dose in DIO-mice; type: in vivo; conditions: 10 mpk PO, 0.5-24 h
[2] = Efficacy: % weight loss in diet-induced obese (DIO) mice after two weeks of dosing; type: in vivo; conditions: 100 mpk BID, PO, relative to vehicle control animals

O=C(Nc1ccc(Oc2ccccc2)cc1)Nc1ccc2c(cnn2CCN2CCCC2)c1 [Example 24, N-(4-phenoxyphenyl)-N′-[1-(2-pyrrolidin-1-ylethyl)-1H-indazol-5-yl]urea]
Brain Conc. AUC [1]: 1428 ng·h/g | DIO Mice % weight loss @ 14 days [2]: 15%
